Literature values in patent US20240325292A1, “COMPOSITION AND METHODS OF TREATMENT USING TRANSDERMAL SUPPLEMENTATION” (Xygenyx Inc., priority 2023, published 2024).

Tests used:
[1] = as penetration enhancer
[2] = in vivo
[3] = as compared to α-tocopherol = 1.0
[4] = system: markers of inflammation in the blood; conditions: individuals with metabolic syndrome
[5] = dietary intake in equal portions
rheumatoid arthritis = conditions: arthritic subjects
[6] = not given; remark: listed apart in the source
[7] = system: wide dynamic range neurons in the ventroposterolateral nucleus of the thalamus; conditions: in vivo
[8] = 400-500 IU, in combination with 10-20 mg β-carotene and 400-500 mg vitamin C

Compound: CC12CCC(CC1)C(C)(C)O2 [eucalyptol, 1,8-epoxy-p-menthane]
- increase of transdermal drug uptake, factor [1]: more than 10

Compound: HGH: hormone comprising a peptide chain that is synthesized in the pituitary gland
- biological half-life [2]: 10-20 minutes

Compound: Cc1cc(O)cc2c1O[C@](C)(CCC[C@H](C)CCC[C@H](C)CCCC(C)C)CC2 [δ-tocopherol]
- relative biological activity [3]: 0.03
- markers of inflammation in the blood [4]: reduced markers of inflammation

Compound: Cc1c(O)cc2c(c1C)O[C@](C)(CCC[C@H](C)CCC[C@H](C)CCCC(C)C)CC2 [γ-tocopherol]
- relative biological activity [3]: 0.1
- concentration in vivo relative to α-tocopherol [5]: roughly 10%

Compound: CC(C)[C@@H]1CC[C@@H](C)C[C@H]1O [Menthol]
- increase of transdermal drug uptake, factor [1]: ≥ 10

Compound: Cc1cc(O)c(C)c2c1O[C@](C)(CCC[C@H](C)CCC[C@H](C)CCCC(C)C)CC2 [β-tocopherol]
- relative biological activity [3]: 0.5

Compound: C=C1CC/C=C(\C)CC[C@@H]2[C@@H]1CC2(C)C [β-caryophyllene]
- joint and lymph node swelling, leukocyte number (rheumatoid arthritis): reduced swelling of joints and lymph nodes as well as the number of circulating and articular leukocytes

Compound: Cc1c(C)c2c(c(C)c1O)CC[C@@](C)(CCC[C@H](C)CCC[C@H](C)CCCC(C)C)O2 [α-tocopherol]
- progression of age-related macular degeneration [8]: dramatically reduce the progression
- reduction in the development of age-related cataracts [8]: 23%
- functional health of sperm (800-900 IU/day): improve functional health of sperm
- blood plasma concentration of F2-isoprostane (1600-3200 IU/day): significantly lower
- reduction of risk of coronary disease (doses up to 400 IU/day): up to 34%
- reduction of risk of developing neurodegenerative diseases (Alzheimer's Syndrome or dementia) (doses up to 400 IU/day, controlled trials): ≤ 24%
- relative biological activity [3]: 1.0

Compound: C/C(=C\CO)CCC[C@H](C)CCC[C@H](C)CCCC(C)C [phytol, Phytol]
- solubility in water [6]: nearly insoluble in water

Compound: CCCCCc1cc(O)c2c(c1)OC(C)(C)C1CCC(C)=CC21 (stereo not drawn) [THC, Δ-9-tetrahydrocannabinol]
- potency in mediating pain relative to morphine [7]: ten times more powerful than morphine
